The values that follow are results of earlier work, collected in patent US20040208833A1, “Novel fluticasone formulations” (Elan Pharma International Ltd., priority 2003, published 2004).

Assay in data set [1]: not given
The source holds these as a separate data set.

Setting [2] is: oral dosing of radiolabeled drug.

In the case of `CCC(=O)O[C@]1(C(=O)SCF)[C@H](C)C[C@H]2[C@@H]3C[C@H](F)C4=CC(=O)C=C[C@]4(C)[C@@]3(F)[C@@H](O)C[C@@]21C` [Fluticasone propionate, S-fluoromethyl-6α,9-difluoro-11β-hydroxy-16α-methyl-3-oxoandrosta-1,4-diene-17β-carbothioate, 17-propionate], the “solubility in 95% ethanol” value (95% ethanol) was “slightly soluble”. Further, the “solubility in dimethyl sulfoxide” value (dimethyl sulfoxide) is reported as “freely soluble”. For the same compound, the solubility in dimethylformamide entry (dimethylformamide) is recorded as “freely soluble”. Besides, the solubility in methanol entry (methanol) was “slightly soluble”. In addition, where the note is “water”, the solubility in water entry is listed as “practically insoluble”. In addition, the oral systemic bioavailability in data set [1] (oral dosing of labeled and unlabeled conventional fluticasone propionate) was under 1%. In data set [1] (setting [2]), the absorption entry was “low”, the extraction from plasma result is on record as “highly extracted from plasma” and the oral bioavailability entry is on record as “neglible”.
